Source: patent publication US20050203065A1, “Method of treating ischemia reperfusion injury using adenosine receptor antagonists” (priority 2002, published 2005)

Columns and labels:
[1] = tested on: open-chest, barbital-anesthetized dogs; test: Protocol III (reperfusion): 60 minutes occlusion and 3 hours reperfusion, drug from 10 minutes before release of occlusion, dogs; format: in vivo, dog
Experimental: (§1) The studies were performed in open-chest, barbital-anesthetized dogs instrumented to measure heart rate, blood pressure, left ventricular pressure, and regional myocardial blood flow (radioactive microspheres). A mechanical occluder was placed around a proximal portion of the left anterior descending coronary artery to produce ischemia and reperfusion. At the end of the experiments, infarct size was determined-by histochemical staining (patent blue dye and triphenyltetrazolium) and expressed as a percentage of the region at risk or as a percentage of the entire left ventricle.
In the reperfusion protocol (see FIG. 3, protocol III), the dogs were subjected to 60 minutes of coronary artery occlusion followed by three hours of reperfusion. […] The antagonists were administered at a dose of 1 mg/kg i.v. bolus followed by an infusion of 10 μg/kg/min for one hour.

[2] = target: T1, recombinant canine A1 adenosine receptors (Canis lupus familiaris, UniProt P11616); test: Radioligand competition binding, canine A1 receptor (3H-CPX), transfected HEK 293 membranes
T1 construct: expressed in transfected cells
T1 sequence (P11616 1-326): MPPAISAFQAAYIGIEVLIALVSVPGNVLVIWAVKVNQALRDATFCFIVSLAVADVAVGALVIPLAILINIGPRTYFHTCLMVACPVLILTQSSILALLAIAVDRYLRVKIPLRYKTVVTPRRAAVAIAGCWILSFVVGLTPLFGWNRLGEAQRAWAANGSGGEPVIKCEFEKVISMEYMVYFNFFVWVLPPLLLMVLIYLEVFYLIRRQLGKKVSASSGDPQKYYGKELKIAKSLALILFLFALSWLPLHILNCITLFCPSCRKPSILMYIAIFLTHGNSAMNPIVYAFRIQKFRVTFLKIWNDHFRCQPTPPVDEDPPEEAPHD
Experimental: Membranes (40-70 μg membrane protein), radioligands, and varying concentrations of competing ligands were incubated in triplicate in 0.1 ml buffer HE plus 2 units/mL adenosine deaminase for 2.5 hours at 21° C. The radioligands used for competitive binding assays were: [^3H]-8-cyclopentyl-1,3-dipropyxanthine ([^3H]-DPCPX) (NEN, Boston, Mass.) for A1 and A2b adenosine receptors, [^3H]-4-(2-[7-amino-2-(furyl)(1,2,4)triazole(2,3-a)(1,3,5)triazin-5-ylaminoethyly)phenol ([^3H] ZM241385) for A2a adenosine receptors (Tocris, Bristol, UK), and [^125Iodine]-labeled N6-(4-aminobenzyl)-9-(5-(methylcarbonyl)-β-D-ribofuranosyl) adenine ([^125I]-AB-MECA) or [^3H]-R-N^6-phenylisopropyladenosine (H^3R]-R-PIA) for A3 adenosine receptors (both from NEN, Boston, Mass.). Nonspecific binding was measured in the presence of 10 μM 5′N ethylcarboxamidoadenosine (NECA, from RBI-Sigma, Natick, Mass.) for A1 and A2b receptors, or 10 μM xanthine amino congener (XAC, from RBI-Sigma, Natick, Mass.) for A2a receptors. Binding assays were terminated by filtration over Whatman GF/C glass fiber filters using a BRANDEL cell harvester (Gaithersburg, Md.).

[3] = target: T2, recombinant human A3 adenosine receptors (Homo sapiens, UniProt P0DMS8); test: Radioligand binding, human A3 receptor ([125I]-AB-MECA), incl. one-point binding at 10 μM; details: read-out: Percent (%) Inhibition at 10 μM Antagonist, A3
T2 construct: expressed in transfected cells; host or cells: HEK 293
T2 sequence (P0DMS8 1-318): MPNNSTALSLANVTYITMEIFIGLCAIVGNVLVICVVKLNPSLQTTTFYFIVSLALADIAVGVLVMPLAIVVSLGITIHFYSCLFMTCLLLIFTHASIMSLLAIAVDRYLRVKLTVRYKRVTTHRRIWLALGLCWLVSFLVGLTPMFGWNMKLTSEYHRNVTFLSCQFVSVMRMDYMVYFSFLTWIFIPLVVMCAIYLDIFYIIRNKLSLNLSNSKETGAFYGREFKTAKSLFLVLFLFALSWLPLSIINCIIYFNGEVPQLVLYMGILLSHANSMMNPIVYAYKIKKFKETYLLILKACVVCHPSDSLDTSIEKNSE

[4] = target: T3, recombinant rat A2b adenosine receptors (Rattus norvegicus, UniProt P29276); test: FLIPR calcium functional assay, rat A2b receptor in HEK-293 cells (NECA); format: cell-based; details: HEK293 cells
T3 construct: expressed in transfected cells; host or cells: HEK-293
T3 sequence (P29276 1-332): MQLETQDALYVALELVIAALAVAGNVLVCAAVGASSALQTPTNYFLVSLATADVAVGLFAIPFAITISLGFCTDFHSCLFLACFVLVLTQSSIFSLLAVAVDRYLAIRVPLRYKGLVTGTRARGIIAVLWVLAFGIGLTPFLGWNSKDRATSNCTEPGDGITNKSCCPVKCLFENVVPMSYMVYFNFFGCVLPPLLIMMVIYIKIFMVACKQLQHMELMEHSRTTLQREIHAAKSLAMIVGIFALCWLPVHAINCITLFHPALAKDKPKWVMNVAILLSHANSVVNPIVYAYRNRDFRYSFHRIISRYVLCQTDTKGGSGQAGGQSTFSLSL
Experimental: FIG. 10 depicts FLIPR assay of BG9928 with recombinant […] A2b adenosine receptors stably expressed in HEK-293 cells. FLIPR assays measuring the fraction of control response observed with 10, 100, and 300 nM BG9928 in HEK-293 cells expressing rat A2b adenosine receptors in the presence of increasing concentrations of the agonist (NECA) (top graph). The bottom graph is a Schild analysis of the data presented in the top graph.
Cells were seeded into 96-well tissue culture plates with black walls and clear bottoms, and cultured to an […] confluent monolayer. Without removing the media, an equal volume of dye (from calcium assay kit purchased from Molecular Devices) was added. Cell plates were incubated for 1 hour at 37° C. and were then transferred to the-FLIPR unit (Molecular Devices). […]
The FLIPR integrates an argon laser excitation source, a 96-well pipettor, and a detection system utilizing a CCD (Charged Coupled Device) imaging camera. Fluorescence emissions from the 96 wells were monitored simultaneously at excitation and emission wavelength of 488 and 520 nm, respectively. Fluorescence data were collected at 0.1-sec intervals before and after simultaneous rapid addition of compounds to the 96-well plate. Results were read as relative fluorescence units (RFU). […]

[5] = tested on: open-chest, barbital-anesthetized dogs; test: Protocol I (pretreatment): 60 minutes of coronary artery occlusion and 3 hours of reperfusion in dogs
Experimental: as §1
In the pretreatment protocol (see FIG. 1, protocol I), the dogs were subjected to 60 minutes of coronary artery occlusion and 3 hours or reperfusion after which the hearts were removed and infarct size was assessed. […] All of the antagonists were administered at a dose of 1 mg/kg as an i.v. bolus followed by and infusion of 10 μg/kg/min continued until immediately before reperfusion (70 minutes total).

CCCn1c(=O)c2[nH]c(C34CCC(CCC(=O)O)(CC3)CC4)nc2n(CCC)c1=O [BG 9928, 3-[4-(2,6-dioxo-1,3-dipropyl-2,3,6,7-tetrahydro-1H-purin-8-yl)-bicyclo[2.2.2]oct-1-yl]-propionic acid]
Infarct size expressed as a percentage of the entire left ventricle, in words [1]: a significant reduction in infarct size was not observed | Relationship between infarct size and collateral blood flow compared to control group [1]: shifted downward | Reduction in infarct size (percentage of the risk region) ([1]; 1 mg/kg i.v. bolus + 10 μg/kg/min for one hour from 10 minutes before release of occlusion): 44% | Infarct size expressed as a percentage of the risk region, in words ([1]; administration during the early phase of reperfusion): reduced significantly | Ki [2]: 28.9 ± 4.1 nM | inhibition at 10 µM [3]: 30% | pA2 ([4]; rat A2b, Schild analysis): 6.59 | Kb ([4]; rat, null methodology): 257 nM | Relationship between infarct size and transmural collateral blood flow compared to control group [5]: shifted downward | Infarct size (percentage of risk region or of left ventricle) compared with control, in words ([5]; 1 mg/kg i.v. bolus + 10 μg/kg/min from 10 minutes before occlusion, 1 mg/kg): significantly smaller | Infarct size reduction ([5]; 1 mg/kg i.v. bolus + 10 μg/kg/min from 10 minutes before occlusion, vs control): 49%
